# From patent US20230312564A1, “AROMATIC RING-LACTAM COMPOUND, PREPARATION METHOD THEREFOR AND USE THEREOF” (SHANGHAI RINGENE BIOPHARMA CO., LTD., priority 2020, published 2023)
# Like-named read-outs stand apart in the source and are kept apart here.
# Columns and labels:
# Colo-205 cells = experiment: Colo-205 tumor cell proliferation, CCK-8, 72 hours; assay type: cell-based; conditions: read-out: Colo-205 IC50
# Method: 1. Test method: Colo-205 cells (ATCC) in logarithmic growth phase were inoculated into a 96-well culture plate at an appropriate density with 90 μL per well. After overnight culture, different concentrations of the compound were added and acted for 72 hours, and a solvent control group (negative control) was set. After the compound was acted on cells for 72 hours, the effect of the compound on cell proliferation was detected by the cell counting kit CCK-8 (Dojindo), and 10 μL of CCK-8 reagent was added to each well. After the plate was placed in a 37° C. incubator for 2 to 4 hours, a full-wavelength microplate reader SpectraMax 190 was adopted for obtaining the readings with a measured wavelength of 450 nm. […] The IC50 value was obtained by four-parameter regression with the software attached to the microplate reader.
# [1] = Liver microsomal metabolic stability, rat; assay type: in vitro ADME; conditions: liver microsomes, 0.5 mg/mL microsomes, 1 μM compound, NADPH, read-out: Liver microsomal stability T1/2
# Method: (§1) The reaction was stopped with tinidazole-containing acetonitrile at 0 min, 5 min, 10 min and 30 min, respectively. After vortexing for 10 min and centrifuging at 15,000 rmp for 10 min, 50 μL of the supernatant was injected into a 96-well plate. The metabolic stability of the compound was calculated by determining the relative reduction of the drug, calculated as half-life T1/2.
# [2] = Liver microsomal metabolic stability, dog; assay type: in vitro ADME; conditions: liver microsomes, 0.5 mg/mL microsomes, 1 μM compound, NADPH, read-out: Liver microsomal stability T1/2
# Method: as §1
# [3] = Liver microsomal metabolic stability, human; assay type: in vitro ADME; conditions: liver microsomes, 0.5 mg/mL microsomes, 1 μM compound, NADPH, read-out: Liver microsomal stability T1/2
# Method: as §1
# ERK1/2 kinase = target: T1, ERK1/2 kinase; experiment: ERK1/2 kinase (Carna) inhibitory activity, Caliper mobility shift; assay type: biochemical; conditions: for IC50: read-out: ERK½ IC50
# T1 construct: fused on or other part: Carna's ERK products carry a GST tag by vendor knowledge
# Method: (1) Preparation of 1×Kinase buffer; (2) preparation of compound concentration gradient: the initial test concentration of the tested compound was 10 μM, which was 3-fold diluted to 10 concentrations, and a duplicate test was conducted, and then the tested compound was diluted in a 96 well plate to a 100-fold final concentration of 10 different concentrations of solution. […] Log (inhibitor) vs. response—Variable slope of the analysis software GraphPad Prism 5 was used to fit the dose-effect curve to obtain the IC50 value of each compound on the enzyme activity.
# 2. […] (A<10 nM, 10 nM≤B<200 nM, C≥200 nM)
# [4] = In-vivo pharmacokinetic parameters in mice; set-up: species or system Balb-c mice
# Method: Six male SPF grade SD rats or Balb-c mice (Shanghai Sipple-Bikai Laboratory Animal) were divided into two groups, and the tested compounds were prepared into appropriate solutions or suspensions; one group was administered intravenously (with a dose of 1 mg/kg), and the other group was administered orally (with a dose of 5 mg/kg). Blood samples were collected by jugular vein puncture, and each sample was collected with a volume of about 0.2 mL/time point, and heparin sodium was used for anticoagulation. The time points of blood collection were listed below: 5, 15 and 30 min […], 1, 2, 4, 6, 8 and 24 h after administration; the collected blood samples were placed on ice and centrifuged to separate plasma (centrifugation conditions: 8,000 rpm, 6 min, 2 to 8° C.), and the collected plasma was stored at −80° C. before analysis. Plasma samples were analyzed by LC-MS/MS.
# The pharmacokinetic parameters such as AUC0-t, AUC0-∞, MRT0-∞, Cmax, Tmax, T1/2 and Vd of the tested compounds and their mean values and standard deviations were calculated by the pharmacokinetic calculation software WinNonlin5.2 non-compartmental model according to the plasma concentration data. In addition, the bioavailability (F) was calculated by the following formula.
# For samples with concentrations below the lower limit of quantitation, while pharmacokinetic parameter calculations were performed, samples sampled before Cmax was reached should be calculated as a zero value and samples sampled after Cmax was reached should be calculated as below limit of quantitation (BLQ).
# [5] = test system: Colo-205 transplanted tumor; experiment: Growth inhibition of nude mice Colo-205 transplanted tumor; assay type: in vivo; conditions: 50 mg/kg, qdx21, po
# Method: The tumor tissue in the vigorous growth phase was cut into about 1.5 mm^3 and inoculated subcutaneously in the right axilla of nude mice under sterile conditions. The diameter of subcutaneous transplanted tumors in nude mice was measured with a vernier caliper, and the mice were randomly divided into groups when the average tumor volume reached about 130 mm^3. The embodiment compounds (injection water containing 1% Tween 80 were configured to a desired concentration for later use) were orally administered daily at a given dose for three consecutive weeks, and the solvent control group was administered with the same amount of solvent. During the whole test, the diameter of transplanted tumor was measured twice a week, and the mice were weighed at the same time. The calculation formula of tumor volume (TV) is expressed as TV=1/2×a×b^2, wherein a and b represent length and width, respectively. The relative tumor volume (RTV) was calculated according to the measurement results, and the calculation formula is RTV=Vt/V0, wherein V0 is the tumor volume measured when administered in separate cages (i.e., d0), and Vt is the tumor volume at the time of each measurement.
# [6] = Homo sapiens, COLO 205, 72 hours, CCK-8, numeric values
# [7] = Homo sapiens, COLO 205, 72 hours, CCK-8, class symbols
# [8] = male, Balb-c, mouse, plasma, IV, 1 mg/kg
# [9] = male, Balb-c, mouse, plasma, PO, 5 mg/kg
compound,measurement,setting,value
"Cc1cccc([C@@H](CO)NC(=O)[C@@H](C)N2Cc3ncc(-c4nc(NC5CCOCC5)ncc4Cl)cc3C2=O)c1 [Comparative compound 3, (R)-2-(3-(5-Chloro-2-((tetrahydro-2H-pyran-4-yl)amino)pyrimidin-4-yl)-5-oxo-5,7-dihydro-6H-pyrrolo[3,4-b]pyridin-6-yl)-N—((S)-2-hydroxy-1-(m-tolyl)ethyl)propanamide, reference compound]",IC50,"Colo-205 cells; Homo sapiens, COLO 205, 72 h",53.1 nM
same,half-life at 1 μM,[1],6 min
same,half-life at 1 μM,[2],201 min
same,half-life at 1 μM,[3],6 min
"Cc1cccc([C@@H](CO)NC(=O)[C@@H](C)N2Cc3ccc(-c4nc(NC5CCOCC5)ncc4Cl)cc3C2=O)c1 [Comparative compound 1, (R)-2-(6-(5-Chloro-2-((tetrahydro-2H-pyran-4-yl)amino)pyrimidin-4-yl)-1-oxoisoindolin-2-yl)-N—((S′)-2-hydroxy-1l-(in-tolyl)ethyl)propanamide, reference compound]",half-life at 1 μM,[1],4 min
same,half-life at 1 μM,[2],40 min
same,half-life at 1 μM,[3],3 min
"Cc1cccc([C@@H](CO)NC(=O)[C@@H](C)N2Cc3c(F)cc(-c4nc(NC5CCOCC5)ncc4Cl)cc3C2=O)c1 [Comparative compound 4, (R)-2-(6-(5-Chloro-2-((tetrahydro-2H-pyran-4-yl)amino)pyrimidin-4-yl)-4-fluoro-1-oxoisoindolin-2-yl)-N—((S)-2-hydroxy-1-(m-tolyl)ethyl)propanamide, reference compound]",IC50,"Colo-205 cells; Homo sapiens, COLO 205, 72 h",37.8 nM
same,half-life at 1 μM,[1],3 min
same,half-life at 1 μM,[2],60 min
same,half-life at 1 μM,[3],3 min
"Cn1nccc1Nc1nccc(-c2cc3c(s2)C(C)(C)N(CCN2CCOCC2)C3=O)n1 [LY3214996, reference compound]",IC50,ERK1/2 kinase; class symbols,< 10 nM
same,IC50,Colo-205 cells; [6],316 nM
Cc1cc([C@@H](CO)NC(=O)[C@@H](C)N2Cc3ccc(-c4nc(NC5CCOCC5)ncc4F)c(F)c3C2=O)ccn1 [Embodiment 41],IC50,ERK1/2 kinase; numeric values,< 1 nM
same,IC50,Colo-205 cells; [7],< 100 nM
C[C@H](C(=O)N[C@H](CO)c1cccc(F)c1)N1Cc2ccc(-c3nc(NC4CCOCC4)ncc3Cl)nc2C1=O [Embodiment 20],enzyme inhibitory activity (in words),ERK1/2 kinase,extremely strong enzyme inhibitory activity
same,IC50,ERK1/2 kinase; numeric values,1.8 nM
same,IC50,Colo-205 cells; [6],246 nM
C[C@H](C(=O)N[C@H](CO)c1cccc(Cl)c1)N1Cc2ccc(-c3nc(NC4CC[C@H](O)[C@@H](F)C4)ncc3F)c(F)c2C1=O (stereo partly drawn) [Embodiment 50],IC50,ERK1/2 kinase; class symbols,< 10 nM
same,IC50,Colo-205 cells; [7],< 100 nM
Cc1cccc([C@@H](CO)NC(=O)[C@@H](C)N2Cc3ccc(-c4ccnc(Nc5ccnn5C)n4)nc3C2=O)c1 [Embodiment 16],IC50,ERK1/2 kinase; class symbols,< 10 nM
same,IC50,Colo-205 cells; [7],< 100 nM
Cc1cccc([C@@H](CO)NC(=O)[C@@H](C)N2Cc3ccc(-c4ccnc(NC(C)C)n4)c(F)c3C2=O)c1 [Embodiment 29],IC50,ERK1/2 kinase; numeric values,3.6 nM
same,IC50,"Colo-205 cells; 72 hours, CCK-8, class symbols",100 to 1000 nM
C[C@H](C(=O)N[C@H](CO)c1ccc(F)c(Cl)c1)N1Cc2ccc(-c3nc(NC4CCOCC4)ncc3Cl)nc2C1=O [Embodiment 19],IC50,ERK1/2 kinase; numeric values,4.8 nM
same,IC50,Colo-205 cells; [6],202 nM
C[C@H](C(=O)N[C@H](CO)c1cccc(Cl)c1)N1Cc2ccc(-c3nc(NC4CCC(O)C(F)C4)ncc3F)c(F)c2C1=O (stereo partly drawn) [Embodiment 39],enzyme inhibitory activity (in words),ERK1/2 kinase,extremely strong enzyme inhibitory activity
same,IC50,ERK1/2 kinase; class symbols,< 10 nM
same,IC50,Colo-205 cells; [7],100 to 1000 nM
C[C@H](C(=O)N[C@H](CO)c1cccc(Cl)c1)N1Cc2ccc(-c3nc(NC4CCC(F)(F)CC4)ncc3F)c(F)c2C1=O [Embodiment 38],IC50,ERK1/2 kinase; class symbols,< 10 nM
same,IC50,Colo-205 cells; [7],100 to 1000 nM
Cc1cccc([C@@H](CO)NC(=O)[C@@H](C)N2Cc3ccc(-c4nc(Nc5ccnn5C)ncc4Cl)nc3C2=O)c1 [Embodiment 9],IC50,ERK1/2 kinase; class symbols,< 10 nM
same,IC50,Colo-205 cells; [7],100 to 1000 nM
C[C@H](C(=O)NCc1cccc(N(C)C)n1)N1Cc2ccc(-c3nc(NC4CCOCC4)ncc3F)c(F)c2C1=O [Embodiment 47],IC50,ERK1/2 kinase; class symbols,< 10 nM
same,IC50,Colo-205 cells; [7],100 to 1000 nM
"Cc1cccc([C@@H](CO)NC(=O)[C@@H](C)N2Cc3ccc(-c4nc(NC5CCOCC5)ncc4F)c(F)c3C2=O)c1 [Embodiment 31, (R)-2-(7-Fluoro-6-(5-fluoro-2-((tetrahydro-2H-pyran-4-yl)amino)pyrimidin-4-yl)-1-oxoisoindolin-2-yl)-N—((S)-2-hydroxy-1-(m-tolyl)ethyl)propanamide]",F,[4]; PO 5 mg/kg vs IV 1 mg/kg,52%
same,AUC(0-inf),[4]; [8],0.407 µM·h
same,AUC(0-t),[4]; [8],0.397 µM·h
same,MRT inf,[4]; [8],30 min
same,clearance,[4]; [8],75 mL/min/kg
same,half-life,[4]; [8],84 min
same,Vd,"[4]; male, Balb-c, mouse, plasma, IV, 1 mg/kg, read-out: Vss",2 L/kg
same,AUC(0-inf),[4]; [9],1.06 µM·h
same,AUC(0-t),[4]; [9],1.05 µM·h
same,Cmax,[4]; [9],1170 nM
same,Tmax,[4]; [9],18 min
same,half-life,[4]; [9],90 min
same,T/C,[5],27.9%
same,Initial weight (D0),[5]; D0,20.1 g
same,Terminal weight (D21),[5]; D21,21.7 g
same,Initial tumor volume,[5]; initial,96 ± 21 mm^3
same,Terminal tumor volume,[5]; terminal,271 ± 128 mm^3
"(R)-2-(6-(5-Chloro-2-((tetrahydro-2H-pyran-4-yl)amino)pyrimidin-4-yl)-4-fluoro-1-oxoisoindolin-2-yl)-N—((S)-2-hydroxy-1-(m-tolyl)ethyl)propanamide [Comparative compound 4, reference compound]",IC50,ERK1/2 kinase; numeric values,105 nM
same,IC50,"Colo-205 cells; 72 hours, CCK-8, class symbols",> 1000 nM
Cc1cccc([C@@H](CO)NC(=O)[C@@H](C)N2Cc3ccc(-c4nc(N[C@H]5CCOC5)ncc4Cl)nc3C2=O)c1 [Embodiment 11],IC50,ERK1/2 kinase; numeric values,8.3 nM
same,IC50,Colo-205 cells; [7],100 to 1000 nM
"Cn1nccc1Nc1nccc(-c2ccn([C@H](CO)c3ccc(Cl)c(F)c3)c(=O)c2)n1 [GDC0994, reference compound]",IC50,ERK1/2 kinase; class symbols,< 10 nM
same,IC50,Colo-205 cells; [6],165 nM
COc1cc(F)cc([C@@H](CO)NC(=O)[C@@H](C)N2Cc3ccc(-c4nc(NC5CC(F)(F)C5)ncc4F)c(F)c3C2=O)c1 [Embodiment 43],IC50,ERK1/2 kinase; class symbols,< 10 nM
same,IC50,Colo-205 cells; [7],< 100 nM
